# Assays:
# [1] = system: Phosphodiesterase 4 enzyme purified from U937 human monocytic cells; test: Inhibition of PDE4 (phosphodiesterase reaction with [3H]-cAMP); assay type: biochemical; settings: 1 μM cAMP plus 10 nM [3H]-cAMP, 45 min at 30° C., pH 7.5
# Protocol: Phosphodiesterase 4 enzyme was purified from U937 human monocytic cells by gel filtration chromatography, and phosphodiesterase reactions were carried out as previously described. See, e.g., Muller et al., Bioorg. Med. Chem. Lett., 1998, 8(19): 2669-2674. Briefly, reactions were carried out in 96-well deep-well plates in 50 mM Tris HCl pH 7.5, 5 mM MgCl2, 1 μM cyclic adenosine monophosphate (cAMP), plus 10 nM [^3H]-cAMP for 45 min at 30° C. The reactions were terminated by boiling, treated with 1 mg/ml snake venom, and separated using AG-1X8 ion exchange resin (BioRad). Reactions consumed less than 15% of available substrate.
# [2] = system: sarcoidosis patients with chronic cutaneous lesions despite systemic therapy; test: Open label clinical study, Sarcoidosis Activity and Severity Index (SASI); assay type: in vivo, human; settings: for SASI induration score, median (range): 43 areas with induration, baseline median 2 (0-4), p<0.005, scale 0 to 4
# Protocol: An open label study of sarcoidosis patients with chronic cutaneous lesions despite systemic therapy was performed to determine the safety and efficacy of (+)-2-[1-(3-ethoxy-4-methoxyphenyl)-2-methanesulfonylethyl]-4-acetylaminoisoindolin-1,3-dione therapy. Patients were on a stable treatment regimen (corticosteroids, methotrexate (max 10 mg/week), azathioprine, hydroxychloroquine, cyclophosphamide, minocycline, doxycycline, chloroquine) for at least three months prior to study entry. Patients were assessed by a previously validated scoring system for cutaneous sarcoidosis: Sarcoidosis Activity and Severity Index (SASI). Individual scores were made for erythema, induration, and desquamation on a scale of 0 to 4. For an individual area of the body, the percentage of involvement for sarcoidosis lesions was scored on a scale from 0 to 7. After establishing a baseline SASI score, patients began treatment with (+)-2-[1-(3-ethoxy-4-methoxyphenyl)-2-methanesulfonylethyl]-4-acetylaminoisoindolin-1,3-dione 20 mg twice a day over the next 12 weeks. A SASI score was determined by the same investigator at baseline and weeks 4 and 12 of treatment.
# Thirteen patients completed 16 weeks of study, including 12 weeks of active drug therapy. […] Among the 13 patients, there were 59 areas with one or more positive SASI feature during treatment. Among the 43 areas with induration, there was a significant drop in the SASI score from baseline (median 2 (0-4)) after 4 weeks (median 1 (0-3), p<0.005) and 12 weeks (median 1 (0-3), p<0.005) therapy.
smiles,measurement,setting,value
"CCOc1cc([C@@H](CS(C)(=O)=O)N2C(=O)c3cccc(NC(C)=O)c3C2=O)ccc1OC [(+)-2-[1-(3-ethoxy-4-methoxyphenyl)-2-methanesulfonylethyl]-4-acetylaminoisoindolin-1,3-dione]",IC50,[1],73.5 nM
same,change in SASI area of involvement during therapy,"[2]; 20 mg twice a day, 12 weeks",no significant change
same,change in SASI desquamation during therapy,"[2]; 20 mg twice a day, 12 weeks",no significant change
same,change in SASI erythema during therapy,"[2]; 20 mg twice a day, 12 weeks",no significant change
same,tolerability,"[2]; 20 mg twice a day, 12 weeks, 13 patients",well tolerated
same,discontinuation of drug treatment,"[2]; 13 patients, 12 weeks of active drug therapy",No patient discontinued
same,"SASI induration score, median (range)","[2]; after 4 weeks therapy, 20 mg twice a day",1 (0-3)
same,"SASI induration score, median (range)","[2]; after 12 weeks therapy, 20 mg twice a day",1 (0-3)
same,"patients with dose reduced by 50% (one for nausea, the other for feeling jittery)","[2]; of 13 patients, continued on the reduced dose",two
same,improvement in skin induration,[2]; within 4 weeks of institution of therapy,significant improvement

# Source: US20140004182A1, “METHODS FOR THE TREATMENT OF SARCOIDOSIS” (priority 2009, published 2014)
